Holding throughout (test): AlphaScreen proximity-based integrin binding assay with TGF-b1 LAP
What all share (conditions): values given as ranges
(In general: Alpha assays give light when donor and acceptor beads are brought close together.)

The target in assay [1] is human integrin αVβ1 (Homo sapiens, UniProt P05556+P06756). In outline:
(§1)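 Purified human integrin incubated with compound, TGF-b1 LAP, biotinylated anti-LAP antibody and acceptor beads for 2 h, then streptavidin donor beads 30 min, room temperature, in 50 mM Tris-HCl pH 7.5, 0.1% BSA, 1 mM CaCl2/MgCl2. AlphaScreen signal (680 nm excitation, 520-620 nm emission); IC50 by four-parameter fit.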

For assay [2], the target named is human integrin αVβ6 (Homo sapiens, UniProt P06756+P18564). In outline: as §1
human integrin αVβ6, sequence (P06756 31-992 limits assumed): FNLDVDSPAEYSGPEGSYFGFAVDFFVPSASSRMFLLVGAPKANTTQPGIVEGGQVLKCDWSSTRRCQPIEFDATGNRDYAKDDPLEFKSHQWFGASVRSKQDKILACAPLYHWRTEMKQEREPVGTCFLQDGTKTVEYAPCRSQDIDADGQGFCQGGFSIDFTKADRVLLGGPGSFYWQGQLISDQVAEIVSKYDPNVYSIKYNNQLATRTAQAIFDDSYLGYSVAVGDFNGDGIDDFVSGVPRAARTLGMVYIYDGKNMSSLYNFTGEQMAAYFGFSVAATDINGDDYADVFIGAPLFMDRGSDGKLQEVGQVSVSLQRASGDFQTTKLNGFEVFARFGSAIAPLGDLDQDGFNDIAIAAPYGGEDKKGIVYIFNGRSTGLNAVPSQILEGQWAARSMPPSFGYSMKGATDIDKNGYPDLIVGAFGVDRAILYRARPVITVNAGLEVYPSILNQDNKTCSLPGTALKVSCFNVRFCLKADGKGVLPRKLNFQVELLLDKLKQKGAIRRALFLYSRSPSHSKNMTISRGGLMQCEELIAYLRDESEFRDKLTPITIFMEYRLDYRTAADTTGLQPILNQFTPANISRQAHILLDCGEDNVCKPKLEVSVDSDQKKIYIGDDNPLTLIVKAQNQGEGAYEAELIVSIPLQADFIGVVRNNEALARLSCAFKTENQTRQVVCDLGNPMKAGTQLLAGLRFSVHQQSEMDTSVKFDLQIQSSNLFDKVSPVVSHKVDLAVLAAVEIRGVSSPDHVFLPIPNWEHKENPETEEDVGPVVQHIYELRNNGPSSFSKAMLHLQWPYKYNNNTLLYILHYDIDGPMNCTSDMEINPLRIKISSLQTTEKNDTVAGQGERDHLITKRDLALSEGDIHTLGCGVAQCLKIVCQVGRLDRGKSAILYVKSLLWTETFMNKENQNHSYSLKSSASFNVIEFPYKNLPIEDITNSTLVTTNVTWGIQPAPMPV
human integrin αVβ6, sequence (P18564 22-707 limits assumed): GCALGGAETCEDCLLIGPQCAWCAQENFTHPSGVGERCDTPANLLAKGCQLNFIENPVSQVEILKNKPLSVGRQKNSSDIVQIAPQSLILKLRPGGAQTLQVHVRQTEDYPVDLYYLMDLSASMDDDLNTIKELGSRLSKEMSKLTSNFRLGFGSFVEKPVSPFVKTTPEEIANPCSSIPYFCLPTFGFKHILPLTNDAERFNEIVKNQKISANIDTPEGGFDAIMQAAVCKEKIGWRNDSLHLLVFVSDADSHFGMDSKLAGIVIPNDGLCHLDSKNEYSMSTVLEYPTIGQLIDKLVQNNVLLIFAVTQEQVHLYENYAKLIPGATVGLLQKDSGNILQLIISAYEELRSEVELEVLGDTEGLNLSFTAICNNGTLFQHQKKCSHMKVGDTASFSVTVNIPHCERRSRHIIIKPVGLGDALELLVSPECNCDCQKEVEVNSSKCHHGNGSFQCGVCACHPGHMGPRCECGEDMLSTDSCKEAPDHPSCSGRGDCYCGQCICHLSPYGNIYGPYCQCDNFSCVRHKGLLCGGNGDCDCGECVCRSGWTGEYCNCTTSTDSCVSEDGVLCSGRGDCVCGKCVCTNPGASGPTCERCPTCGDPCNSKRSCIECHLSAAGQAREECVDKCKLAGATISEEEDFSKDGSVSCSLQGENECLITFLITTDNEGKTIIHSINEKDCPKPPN
In assay [3] the target is human integrin αVβ8 (Homo sapiens, UniProt P06756+P26012). Summed up:
as §1

Bounds are passed on as bounds.

human integrin αVβ1, sequence (P06756 31-992 limits assumed): as the sequence (P06756 31-992 limits assumed) above
human integrin αVβ1, sequence (P05556 21-728 limits assumed): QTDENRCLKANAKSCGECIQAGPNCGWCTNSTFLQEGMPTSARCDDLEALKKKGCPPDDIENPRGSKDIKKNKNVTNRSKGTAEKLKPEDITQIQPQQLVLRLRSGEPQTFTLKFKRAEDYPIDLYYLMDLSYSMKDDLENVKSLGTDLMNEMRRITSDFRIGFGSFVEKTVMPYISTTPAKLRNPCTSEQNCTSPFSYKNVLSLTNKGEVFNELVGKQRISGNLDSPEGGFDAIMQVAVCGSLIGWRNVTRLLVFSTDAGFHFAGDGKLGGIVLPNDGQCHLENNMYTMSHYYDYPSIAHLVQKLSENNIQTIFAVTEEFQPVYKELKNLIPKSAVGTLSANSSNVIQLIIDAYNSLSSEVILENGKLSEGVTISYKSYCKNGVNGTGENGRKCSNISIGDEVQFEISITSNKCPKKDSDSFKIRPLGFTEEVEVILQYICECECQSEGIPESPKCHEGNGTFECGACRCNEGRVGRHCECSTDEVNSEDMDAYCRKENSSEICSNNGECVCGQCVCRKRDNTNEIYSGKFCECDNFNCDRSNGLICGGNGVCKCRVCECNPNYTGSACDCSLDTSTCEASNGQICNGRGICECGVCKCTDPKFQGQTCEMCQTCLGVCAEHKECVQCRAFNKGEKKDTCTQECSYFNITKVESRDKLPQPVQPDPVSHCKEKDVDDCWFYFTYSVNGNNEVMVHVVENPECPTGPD
human integrin αVβ8, sequence (P06756 31-992 limits assumed): as the sequence (P06756 31-992 limits assumed) above
human integrin αVβ8, sequence (P26012 43-684 limits assumed): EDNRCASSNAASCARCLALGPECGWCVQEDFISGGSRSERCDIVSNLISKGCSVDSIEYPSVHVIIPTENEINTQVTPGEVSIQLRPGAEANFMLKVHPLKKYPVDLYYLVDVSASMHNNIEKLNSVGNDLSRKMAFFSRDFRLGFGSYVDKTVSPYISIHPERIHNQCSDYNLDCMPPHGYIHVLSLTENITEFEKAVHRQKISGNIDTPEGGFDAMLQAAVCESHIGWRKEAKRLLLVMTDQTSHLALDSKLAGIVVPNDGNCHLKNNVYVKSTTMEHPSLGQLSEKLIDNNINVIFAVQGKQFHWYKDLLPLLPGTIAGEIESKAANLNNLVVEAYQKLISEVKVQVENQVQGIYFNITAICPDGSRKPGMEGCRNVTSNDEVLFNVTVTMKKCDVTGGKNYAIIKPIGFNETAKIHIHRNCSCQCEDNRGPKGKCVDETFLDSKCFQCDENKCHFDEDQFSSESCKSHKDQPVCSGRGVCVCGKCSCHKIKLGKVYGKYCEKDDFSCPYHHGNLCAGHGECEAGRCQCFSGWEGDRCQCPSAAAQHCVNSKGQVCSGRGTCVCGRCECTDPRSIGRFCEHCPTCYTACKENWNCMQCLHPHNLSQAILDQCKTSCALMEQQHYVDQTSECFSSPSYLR

Take `COc1nccnc1C1(C(=O)N[C@@H](CCOCCCCc2ccc3c(n2)NCCC3)C(=O)O)CC1` [Compound 50, N-(1-(3-methoxypyrazin-2-yl)cyclopropane-1-carbonyl)-O-(4-(5,6,7,8-tetrahydro-1,8-naphthyridin-2-yl)butyl)-L-homoserine]: the figures for the IC50 in assay [1], in assay [2] and in assay [3] were under 50 nM, at least 500 nM and 50 to 150 nM, respectively.

As to `Cn1ncc(Cl)c1C1(C(=O)N[C@@H](CCOCCCCc2ccc3c(n2)NCCC3)C(=O)O)CC1` [Compound 51, N-(1-(4-chloro-1-methyl-1H-pyrazol-5-yl)cyclopropane-1-carbonyl)-O-(4-(5,6,7,8-tetrahydro-1,8-naphthyridin-2-yl)butyl)-L-homoserine], the IC50 (usually the point on the concentration scale where inhibition reaches its midpoint) in assay [1] was under 50 nM; in assay [2] it was at least 500 nM; in assay [3] it was under 50 nM.

`O=C(O)[C@H](CCOCCCCc1ccc2c(n1)NCCC2)NC(=O)C1(c2ncccc2CF)CC1` [Compound 52, N-(1-(3-(fluoromethyl)pyridin-2-yl)cyclopropane-1-carbonyl)-O-(4-(5,6,7,8-tetrahydro-1,8-naphthyridin-2-yl)butyl)-L-homoserine]: the figures for the IC50 in assay [1], in assay [2] and in assay [3] were under 50 nM, at least 500 nM and under 50 nM, respectively.

In the case of `COCc1cccnc1C1(C(=O)N[C@@H](CCOCCCCc2ccc3c(n2)NCCC3)C(=O)O)CC1` [Compound 53, N-(1-(3-(methoxymethyl)pyridin-2-yl)cyclopropane-1-carbonyl)-O-(4-(5,6,7,8-tetrahydro-1,8-naphthyridin-2-yl)butyl)-L-homoserine], the IC50 in assay [1] is 50 to 150 nM; in assay [2], at least 500 nM; in assay [3], 50 to 150 nM.

Consider `Cn1nccc1C1(C(=O)N[C@@H](CCOCCCCc2ccc3c(n2)NCCC3)C(=O)O)CC1` [Compound 54, N-(1-(1-methyl-1H-pyrazol-5-yl)cyclopropane-1-carbonyl)-O-(4-(5,6,7,8-tetrahydro-1,8-naphthyridin-2-yl)butyl)-L-homoserine], for which the half-inhibitory concentration (IC50) in assay [1] was under 50 nM; in assay [2] it was at least 500 nM; in assay [3], 50 to 150 nM.

As for `O=C(O)[C@H](CCOCCCCc1ccc2c(n1)NCCC2)NC(=O)C1(n2ccc(Cl)n2)CC1` [Compound 55, N-(1-(3-chloro-1H-pyrazol-1-yl)cyclopropane-1-carbonyl)-O-(4-(5,6,7,8-tetrahydro-1,8-naphthyridin-2-yl)butyl)-L-homoserine], the figures for the IC50 in assay [1], in assay [2] and in assay [3] were under 50 nM, at least 500 nM and 50 to 150 nM, respectively.

As to `COc1cccc(C#N)c1C1(C(=O)N[C@@H](CCOCCCCc2ccc3c(n2)NCCC3)C(=O)O)CC1` [Compound 56, N-(1-(2-cyano-6-methoxyphenyl)cyclopropane-1-carbonyl)-O-(4-(5,6,7,8-tetrahydro-1,8-naphthyridin-2-yl)butyl)-L-homoserine], the values for the IC50 in assay [1], in assay [2] and in assay [3] were 50 to 150 nM, at least 500 nM and under 50 nM, respectively.

In the case of `O=C(O)[C@H](CCOCCCCc1ccc2c(n1)NCCC2)NC(=O)C1(c2cccnc2C(F)F)CC1` [Compound 57, N-(1-(2-(difluoromethyl)pyridin-3-yl)cyclopropane-1-carbonyl)-O-(4-(5,6,7,8-tetrahydro-1,8-naphthyridin-2-yl)butyl)-L-homoserine], the half-maximal inhibitory concentration (IC50) was under 50 nM in assay [1], at least 500 nM in assay [2] and 50 to 150 nM in assay [3].

As to `O=C(O)[C@H](CCOCCCCc1ccc2c(n1)NCCC2)NC(=O)C1(c2ncccc2C2CC2)CC1` [Compound 58, N-(1-(3-cyclopropylpyridin-2-yl)cyclopropane-1-carbonyl)-O-(4-(5,6,7,8-tetrahydro-1,8-naphthyridin-2-yl)butyl)-L-homoserine], the IC50 is under 50 nM in assay [1], at least 500 nM in assay [2] and 150 to 250 nM in assay [3].

Consider `O=C(O)[C@H](CCOCCCCc1ccc2c(n1)NCCC2)NC(=O)C1(c2cncnc2C(F)F)CC1` [Compound 59, N-(1-(4-(difluoromethyl)pyrimidin-5-yl)cyclopropane-1-carbonyl)-O-(4-(5,6,7,8-tetrahydro-1,8-naphthyridin-2-yl)butyl)-L-homoserine], for which the IC50 in assay [1] is under 50 nM; in assay [2], at least 500 nM; in assay [3] it was under 50 nM.

As for `Cc1nc(C)c(C2(C(=O)N[C@@H](CCOCCCCc3ccc4c(n3)NCCC4)C(=O)O)CC2)c(Cl)n1` [Compound 60, N-(1-(4-chloro-2,6-dimethylpyrimidin-5-yl)cyclopropane-1-carbonyl)-O-(4-(5,6,7,8-tetrahydro-1,8-naphthyridin-2-yl)butyl)-L-homoserine], the results for the IC50 in assay [1], in assay [2] and in assay [3] were under 50 nM, at least 500 nM and under 50 nM, respectively.

As to `COc1ncnc(C)c1C1(C(=O)N[C@@H](CCOCCCCc2ccc3c(n2)NCCC3)C(=O)O)CC1` [Compound 61, N-(1-(4-methoxy-6-methylpyrimidin-5-yl)cyclopropane-1-carbonyl)-O-(4-(5,6,7,8-tetrahydro-1,8-naphthyridin-2-yl)butyl)-L-homoserine], the values for the IC50 in assay [1], in assay [2] and in assay [3] were under 50 nM, at least 500 nM and under 50 nM, respectively.

As to `COc1ncnc(Cl)c1C1(C(=O)N[C@@H](CCOCCCCc2ccc3c(n2)NCCC3)C(=O)O)CC1` [Compound 62, N-(1-(4-chloro-6-methoxypyrimidin-5-yl)cyclopropane-1-carbonyl)-O-(4-(5,6,7,8-tetrahydro-1,8-naphthyridin-2-yl)butyl)-L-homoserine], the IC50 in assay [1] is under 50 nM; in assay [2], at least 500 nM; in assay [3], under 50 nM.

For the compound `O=C(O)[C@H](CCOCCCCc1ccc2c(n1)NCCC2)NC(=O)C1(c2c(Cl)nc[nH]c2=O)CC1` [Compound 63, N-(1-(4-chloro-6-oxo-1,6-dihydropyrimidin-5-yl)cyclopropane-1-carbonyl)-O-(4-(5,6,7,8-tetrahydro-1,8-naphthyridin-2-yl)butyl)-L-homoserine], the 50% inhibitory concentration (IC50) in assay [1] was 150 to 250 nM; in assay [2] it was at least 500 nM; in assay [3], 50 to 150 nM.

In the case of `O=C(O)[C@H](CCOCCCCc1ccc2c(n1)NCCC2)NC(=O)C1(n2cncc2C(F)F)CC1` [Compound 64, N-(1-(5-(difluoromethyl)-1H-imidazol-1-yl)cyclopropane-1-carbonyl)-O-(4-(5,6,7,8-tetrahydro-1,8-naphthyridin-2-yl)butyl)-L-homoserine], the results for the IC50 in assay [1], in assay [2] and in assay [3] were under 50 nM, at least 500 nM and 50 to 150 nM, respectively.

With `O=C(O)[C@H](CCOCCCCc1ccc2c(n1)NCCC2)NC(=O)C1(n2c(Cl)cccc2=O)CC1` [Compound 65, N-(1-(6-chloro-2-oxopyridin-1(2H)-yl)cyclopropane-1-carbonyl)-O-(4-(5,6,7,8-tetrahydro-1,8-naphthyridin-2-yl)butyl)-L-homoserine], the IC50 in assay [1] is under 50 nM; in assay [2], at least 500 nM; in assay [3] it was under 50 nM.

For `O=C(O)[C@H](CCOCCCCc1ccc2c(n1)NCCC2)NC(=O)C1(c2[nH]c(=O)ccc2Cl)CC1` [Compound 66, N-(1-(3-chloro-6-oxo-1,6-dihydropyridin-2-yl)cyclopropane-1-carbonyl)-O-(4-(5,6,7,8-tetrahydro-1,8-naphthyridin-2-yl)butyl)-L-homoserine], the IC50 in assay [1] is under 50 nM; in assay [2], at least 500 nM; in assay [3], under 50 nM.

As to `O=C(O)[C@H](CCOCCCCc1ccc2c(n1)NCCC2)NC(=O)C1(c2nccnc2C(F)(F)F)CC1` [Compound 67, O-(4-(5,6,7,8-tetrahydro-1,8-naphthyridin-2-yl)butyl)-N-(1-(3-(trifluoromethyl)pyrazin-2-yl)cyclopropane-1-carbonyl)-L-homoserine], the results for the IC50 in assay [1], in assay [2] and in assay [3] were under 50 nM, at least 500 nM and under 50 nM, respectively.

On to `O=C(O)[C@H](CCOCCCCc1ccc2c(n1)NCCC2)NC(=O)C1(c2c(Cl)cc[nH]c2=O)CC1` [Compound 68, N-(1-(4-chloro-2-oxo-1,2-dihydropyridin-3-yl)cyclopropane-1-carbonyl)-O-(4-(5,6,7,8-tetrahydro-1,8-naphthyridin-2-yl)butyl)-L-homoserine], for which the IC50 was under 50 nM in assay [1], at least 500 nM in assay [2] and under 50 nM in assay [3].

For `O=C(O)[C@H](CCOCCCCc1ccc2c(n1)NCCC2)NC(=O)C1(n2nc(Cl)cc2Cl)CC1` [Compound 69, N-(1-(3,5-dichloro-1H-pyrazol-1-yl)cyclopropane-1-carbonyl)-O-(4-(5,6,7,8-tetrahydro-1,8-naphthyridin-2-yl)butyl)-L-homoserine], the concentration for half-maximal inhibition (IC50) in assay [1] was under 50 nM; in assay [2] it was 250 to 500 nM; in assay [3], under 50 nM.

As for `O=C(O)[C@H](CCOCCCCc1ccc2c(n1)NCCC2)NC(=O)C1(n2ccnc2C(F)(F)F)CC1` [Compound 70, O-(4-(5,6,7,8-tetrahydro-1,8-naphthyridin-2-yl)butyl)-N-(1-(2-(trifluoromethyl)-1H-imidazol-1-yl)cyclopropane-1-carbonyl)-L-homoserine], the half-inhibitory concentration (IC50) in assay [1] was under 50 nM; in assay [2], at least 500 nM; in assay [3] it was under 50 nM.

On to `O=C(O)[C@H](CCOCCCCc1ccc2c(n1)NCCC2)NC(=O)C1(c2[nH]ncc2Cl)CC1` [Compound 71, N-(1-(4-chloro-1H-pyrazol-5-yl)cyclopropane-1-carbonyl)-O-(4-(5,6,7,8-tetrahydro-1,8-naphthyridin-2-yl)butyl)-L-homoserine], for which the figures for the concentration for half-maximal inhibition (IC50) in assay [1], in assay [2] and in assay [3] were under 50 nM, at least 500 nM and under 50 nM, respectively.

For the compound `Cc1cc(Cl)n(C2(C(=O)N[C@@H](CCOCCCCc3ccc4c(n3)NCCC4)C(=O)O)CC2)n1` [Compound 72, N-(1-(5-chloro-3-methyl-1H-pyrazol-1-yl)cyclopropane-1-carbonyl)-O-(4-(5,6,7,8-tetrahydro-1,8-naphthyridin-2-yl)butyl)-L-homoserine], the IC50 is under 50 nM in assay [1], at least 500 nM in assay [2] and under 50 nM in assay [3].

These data come from patent US20240245682A1, “ALPHA-V-BETA-8 INTEGRIN INHIBITORS AND USES THEREOF” (Pliant Therapeutics, Inc., priority 2022, published 2024).
